Results on twelve compounds are retold here after US8114900B2, “Amorphous carvedilol dihydrogen phosphate” (Teva Pharmaceutical Industries Ltd., priority 2006, dated 2012).

Like-named read-outs stand apart in the source and are kept apart here.

For orientation: solubility means the dissolved amount per volume that the medium holds.

Data set [1] can be described thus: Stability upon heating under extreme heat conditions (oven). It counts as physicochemical. To be noted: 80° C. for 30 min in oven.
Data set [2] in a line: % crystallinity calculation using the WinXRD 2.0 program. It counts as physicochemical. To be noted: from XRD. The source says: 2.0 program (FIGS. 46, 48, 39, 40, 43, 53, 50, 41).
The nature of data set [3]: Particle size dimensions from microscope images. It counts as physicochemical. The source says: It has the advantage of being able to reduce the particle size to a range of smaller dimensions (according to the requirements of the formulator who prepare the capsule or tablet), while when starting in advance with a smaller size of powder (Form I) limits this option. In addition, small particles, reduce flowability.

The conditions of data set [4]: cited from earlier work.
The nature of data set [5]: Solubility of solid forms at pH=7 and 25° C. It counts as physicochemical. Here is the method:
The amorphous form (1:1) of the present invention has higher solubility with compared to Form I at pH=7 and 25° C.: […]

Take `COc1ccccc1OCCNCC(O)COc1cccc2[nH]c3ccccc3c12.O=P(O)(O)O` (centres unmarked) [Form R, carvedilol dihydrogen phosphate]: in data set [1] (listed as R), the “stability upon heating (solid form)” value is recorded as “stable upon heating”. The “% crystallinity” value in data set [2] (listed as R) is “about 86%”.

`COc1ccccc1OCCNCC(O)COc1cccc2[nH]c3ccccc3c12.O=P(O)(O)O` (centres unmarked) [Form F1, carvedilol dihydrogen phosphate]: the “stability upon heating (solid form)” value in data set [1] (listed as F1) is “stable upon heating”. Also, the “% crystallinity” value in data set [2] (listed as F1) is recorded as “about 86%”. Moreover, in data set [3] (listed as F1), the particle size dimensions is recorded as 50-150 μm.

Consider `COc1ccccc1OCCNCC(O)COc1cccc2[nH]c3ccccc3c12.O=P(O)(O)O` (centres unmarked) [Form L1, carvedilol dihydrogen phosphate], for which the “stability upon heating (solid form)” value in data set [1] (listed as L1) is reported as “stable upon heating”. The “% crystallinity” value in data set [2] (listed as L1) is “about 85%”.

In the case of `COc1ccccc1OCCNCC(O)COc1cccc2[nH]c3ccccc3c12.O=P(O)(O)O` (centres unmarked) [Form IV, reference compound], in data set [1], the “stability upon heating (solid form)” value is “transforms to amorphous form”.

With `COc1ccccc1OCCNCC(O)COc1cccc2[nH]c3ccccc3c12.O=P(O)(O)O` (centres unmarked) [Form F, carvedilol dihydrogen phosphate], the “stability upon heating (solid form)” value in data set [1] (listed as F) is on record as “stable upon heating”. Moreover, in data set [2] (listed as F), the “% crystallinity” value is “about 87%”. Besides, in data set [3] (listed as F), the particle size dimensions is listed as 50-200 μm.

As for `COc1ccccc1OCCNCC(O)COc1cccc2[nH]c3ccccc3c12.O=P(O)(O)O` (centres unmarked) [Form N, carvedilol dihydrogen phosphate], the “% crystallinity” value in data set [2] (listed as N) was “about 86%”. For the same compound, the particle size dimensions in data set [3] (listed as N) is reported as 200-400 μm.

As for `COc1ccccc1OCCNCC(O)COc1cccc2[nH]c3ccccc3c12` (racemic) [carvedilol, (±)-1-(Carbazol-4-yloxy)-3-[[2-(o-methoxyphenoxy)ethyl]amino]-2-propanol], the solubility in data set [4] (in alkaline media) is under 1 µg/mL; in data set [4] (increases with decreasing pH, upper value), “up to 100 μg/mL”.

On to `COc1ccccc1OCCNCC(O)COc1cccc2[nH]c3ccccc3c12.O=P(O)(O)O` (centres unmarked) [Form I, carvedilol dihydrogen phosphate], for which, in data set [5] (listed as I (′027)), the “solubility” value turned out to be 9.6 µg/mL. In addition, the “% crystallinity” value in data set [2] (listed as I) was “about 68%”. In addition, in data set [3] (listed as I), the particle size dimensions result is listed as “less than 20 μm”.

With `COc1ccccc1OCCNCC(O)COc1cccc2[nH]c3ccccc3c12.O=P(O)(O)O` (centres unmarked) [Amorphous, carvedilol dihydrogen phosphate], the “solubility” value in data set [5] was determined as 14.9 µg/mL.

For the compound `COc1ccccc1OCCNCC(O)COc1cccc2[nH]c3ccccc3c12.O=P(O)(O)O` (centres unmarked) [Form Y, carvedilol dihydrogen phosphate], the particle size dimensions in data set [3] (listed as Y) was 20-100 μm.

Consider `COc1ccccc1OCCNCC(O)COc1cccc2[nH]c3ccccc3c12.O=P(O)(O)O` (centres unmarked) [Form L, carvedilol dihydrogen phosphate], for which the “stability upon heating (solid form)” value in data set [1] (listed as L) is on record as “stable upon heating”. Besides, the “% crystallinity” value in data set [2] (listed as L) is “about 88%”.

For the compound `COc1ccccc1OCCNCC(O)COc1cccc2[nH]c3ccccc3c12.O=P(O)(O)O` (centres unmarked) [Form P, carvedilol dihydrogen phosphate], the “% crystallinity” value in data set [2] (listed as P) was “about 85%”.
